The results in this text go back to US20230303589A1, “CRYSTALLINE FORMS OF CFTR MODULATORS” (Vertex Pharmaceuticals Incorporated, priority 2020, published 2023).

Data set [1] in a line: Pharmacokinetics after a single oral administration in male rats. It is filed as in vivo. Particulars: nominal dose 3 mg/kg, mean oral bioavailability.
Data set [2] addresses CFTR (Homo sapiens, UniProt P13569). In words: Membrane potential dye assay in human intestinal epithelial enteroid cells. It is filed as cell-based. As to conditions: CFTR-mediated chloride transport; 18-24 h incubation; acute 10 µM forskolin and 300 nM Compound III. On the procedure:
Base medium (ADF+++) consisted of Advanced DMEM/Ham’s F12, 2 mM Glutamax, 10 mM HEPES, […] penicillin/streptomycin.
Intestinal enteroid maintenance medium (IEMM) consisted of ADF+++, 1x B27 supplement, 1x N2 supplement, 1.25 mM N-acetyl cysteine, 10 mM Nicotinamide, 50 ng/mL hEGF, 10 nM Gastrin, 1 µg/mL hR-spondin-1, 100 ng/mL hNoggin, TGF-b type 1 inhibitor A-83-01, 100 µg/mL Primocin, 10 µM P38 MAPK inhibitor SB202190.
Bath 1 Buffer consisted of 1 mM MgC12, 160 mM NaCl, 4.5 mM KC1, 10 mM HEPES, 10 mM Glucose, 2 mM CaCl2.
Chloride Free Buffer consisted of 1 mM Magnesium Gluconate, 2 mM Calcium Gluconate, 4.5 mM Potassium Gluconate, 160 mM Sodium Gluconate, 10 mM HEPES, 10 mM Glucose.
Bath1 Dye Solution consisted of Bath 1 Buffer, 0.04% Pluronic F127, 20 µM Methyl Oxonol, 30 µM CaCCinh-A01, 30 µM Chicago Sky Blue. […]
Enteroid cells were incubated with test compound in IEMM for 18-24 h at 37° C., 95% humidity and 5% CO2. […] Chloride transport was initiated by addition of Chloride Free Dye Stimulation Solution and the fluorescence signal was read for 15 min. […] Chloride transport was then expressed as a percentage of the chloride transport following treatment with 3 µM Compound I, 3 µM Compound II, and 300 nM acute Compound III triple combination control (% Activity).

Data set [3] deals with T1, F508del CFTR (Homo sapiens, UniProt P13569, DEL508-508).
T1 construct: HBE cells derived from 3 F508del homozygous donors; endogenous in cells; host or cells: HBE cells from 3 F508del homozygous donors
T1 sequence (P13569 with tags, fused parts or gaps DEL508-508): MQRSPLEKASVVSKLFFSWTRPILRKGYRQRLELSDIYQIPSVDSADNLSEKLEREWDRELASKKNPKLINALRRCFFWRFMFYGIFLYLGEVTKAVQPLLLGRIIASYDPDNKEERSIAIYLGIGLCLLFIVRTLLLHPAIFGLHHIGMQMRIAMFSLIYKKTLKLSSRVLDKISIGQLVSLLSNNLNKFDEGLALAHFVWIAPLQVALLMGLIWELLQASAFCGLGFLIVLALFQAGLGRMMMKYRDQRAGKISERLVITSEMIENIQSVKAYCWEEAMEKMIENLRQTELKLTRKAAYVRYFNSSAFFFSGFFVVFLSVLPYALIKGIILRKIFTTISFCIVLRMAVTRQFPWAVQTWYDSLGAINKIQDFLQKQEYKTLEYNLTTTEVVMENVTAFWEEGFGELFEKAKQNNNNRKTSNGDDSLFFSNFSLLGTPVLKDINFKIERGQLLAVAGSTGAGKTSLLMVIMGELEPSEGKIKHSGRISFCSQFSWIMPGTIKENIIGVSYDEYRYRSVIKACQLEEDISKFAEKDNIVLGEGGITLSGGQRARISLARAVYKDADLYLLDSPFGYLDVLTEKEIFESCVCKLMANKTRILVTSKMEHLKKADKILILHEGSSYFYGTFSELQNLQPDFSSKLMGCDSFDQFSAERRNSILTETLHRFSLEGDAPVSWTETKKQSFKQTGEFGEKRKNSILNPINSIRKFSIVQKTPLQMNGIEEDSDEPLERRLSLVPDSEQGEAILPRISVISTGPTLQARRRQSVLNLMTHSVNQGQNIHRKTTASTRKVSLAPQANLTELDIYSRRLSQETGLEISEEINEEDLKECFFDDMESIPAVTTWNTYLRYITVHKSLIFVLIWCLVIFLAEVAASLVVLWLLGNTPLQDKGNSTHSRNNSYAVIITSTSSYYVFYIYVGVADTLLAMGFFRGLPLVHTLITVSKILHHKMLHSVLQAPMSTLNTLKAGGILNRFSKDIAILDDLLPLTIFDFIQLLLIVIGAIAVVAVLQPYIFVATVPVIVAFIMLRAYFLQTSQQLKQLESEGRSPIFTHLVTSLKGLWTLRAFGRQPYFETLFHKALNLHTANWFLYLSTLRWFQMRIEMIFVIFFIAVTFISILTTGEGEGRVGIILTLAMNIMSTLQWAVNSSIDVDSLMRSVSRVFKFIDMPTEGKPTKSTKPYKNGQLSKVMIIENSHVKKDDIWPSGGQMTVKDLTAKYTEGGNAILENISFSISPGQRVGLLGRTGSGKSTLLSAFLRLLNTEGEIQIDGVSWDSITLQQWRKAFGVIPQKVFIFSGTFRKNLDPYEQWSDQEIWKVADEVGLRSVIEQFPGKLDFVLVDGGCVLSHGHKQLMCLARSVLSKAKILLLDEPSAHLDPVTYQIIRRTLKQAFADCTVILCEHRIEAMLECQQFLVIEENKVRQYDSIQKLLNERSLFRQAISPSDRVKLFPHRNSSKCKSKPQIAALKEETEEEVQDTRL
Briefly: Ussing chamber chloride transport, F508del/MF HBE. It is filed as cell-based. As to conditions: for chloride transport: treatment for 16 to 24 h. On the procedure:
(§1) Ussing chamber studies were conducted to measure F508del CFTR-mediated chloride transport in HBE cells derived from 3 F508del homozygous donors and 5 F508del/MF donors (G542X, 3 donors; E585X, 1 donor; 3905InsT, 1 donor). As a positive control, maximally effective concentrations of N-(benzenesulfonyl)-6-[3-[2-[1-(trifluoromethyl)cyclopropyl] ethoxy] pyrazol-1-yl]-2-[ ( 4S)-2,2,4-trimethylpyrrolidin-1-yl] pyridine-3-carboxamide (see WO 2018/064632) and N-[(6-amino-2-pyridyl)sulfonyl]-6-(3-fluoro-5-isobutoxy-phenyl)-2-[(4S)-2,2,4-trimethylpyrrolidin-1-yl]pyridine-3-carboxamide (see WO 2016/057572) in combination with Compound II/Compound III were included in each experiment.

The nature of data set [4]: Pharmacokinetics after a single oral administration in male dogs. It is filed as in vivo. Particulars: nominal dose 1 mg/kg, mean oral bioavailability.
Data set [5] is described as follows: Safety analysis of an ongoing clinical study. The data set is classed as in vivo. The protocol:
A safety analysis of an ongoing clinical study was performed for 37 subjects in Cohorts A1 to A5, 33 subjects in Cohort B, and 17 subjects in Cohort C, who were exposed to at least 1 dose of study drug (Compound I or placebo) as a monotherapy and as part of a triple combination with Compound II or Compound III.

Data set [6] is described as follows: Pharmacokinetics after a single oral administration in male monkeys. It is filed as in vivo. Particulars: nominal dose 1 mg/kg, mean oral bioavailability.
Data set [7] is described as follows: Systemic exposure with increasing dose and repeated oral administration for 28 d in dogs. The data set is classed as in vivo.
The target in data set [8] is T1, F508del CFTR. In words: Ussing chamber chloride transport, F508del/F508del HBE. As to conditions: for chloride transport: treatment for 16 to 24 h. The data set is classed as cell-based. The protocol:
as §1

The nature of data set [9]: Systemic exposure with increasing dose and repeated oral administration for 28 d in rats. It is filed as in vivo.
Where [10] appears, read: with a fixed combination of Compound II.
Setting [11] is: with a fixed concentration of Compound III or Compound II/Compound III.

CFTR, sequence (P13569 whole entry): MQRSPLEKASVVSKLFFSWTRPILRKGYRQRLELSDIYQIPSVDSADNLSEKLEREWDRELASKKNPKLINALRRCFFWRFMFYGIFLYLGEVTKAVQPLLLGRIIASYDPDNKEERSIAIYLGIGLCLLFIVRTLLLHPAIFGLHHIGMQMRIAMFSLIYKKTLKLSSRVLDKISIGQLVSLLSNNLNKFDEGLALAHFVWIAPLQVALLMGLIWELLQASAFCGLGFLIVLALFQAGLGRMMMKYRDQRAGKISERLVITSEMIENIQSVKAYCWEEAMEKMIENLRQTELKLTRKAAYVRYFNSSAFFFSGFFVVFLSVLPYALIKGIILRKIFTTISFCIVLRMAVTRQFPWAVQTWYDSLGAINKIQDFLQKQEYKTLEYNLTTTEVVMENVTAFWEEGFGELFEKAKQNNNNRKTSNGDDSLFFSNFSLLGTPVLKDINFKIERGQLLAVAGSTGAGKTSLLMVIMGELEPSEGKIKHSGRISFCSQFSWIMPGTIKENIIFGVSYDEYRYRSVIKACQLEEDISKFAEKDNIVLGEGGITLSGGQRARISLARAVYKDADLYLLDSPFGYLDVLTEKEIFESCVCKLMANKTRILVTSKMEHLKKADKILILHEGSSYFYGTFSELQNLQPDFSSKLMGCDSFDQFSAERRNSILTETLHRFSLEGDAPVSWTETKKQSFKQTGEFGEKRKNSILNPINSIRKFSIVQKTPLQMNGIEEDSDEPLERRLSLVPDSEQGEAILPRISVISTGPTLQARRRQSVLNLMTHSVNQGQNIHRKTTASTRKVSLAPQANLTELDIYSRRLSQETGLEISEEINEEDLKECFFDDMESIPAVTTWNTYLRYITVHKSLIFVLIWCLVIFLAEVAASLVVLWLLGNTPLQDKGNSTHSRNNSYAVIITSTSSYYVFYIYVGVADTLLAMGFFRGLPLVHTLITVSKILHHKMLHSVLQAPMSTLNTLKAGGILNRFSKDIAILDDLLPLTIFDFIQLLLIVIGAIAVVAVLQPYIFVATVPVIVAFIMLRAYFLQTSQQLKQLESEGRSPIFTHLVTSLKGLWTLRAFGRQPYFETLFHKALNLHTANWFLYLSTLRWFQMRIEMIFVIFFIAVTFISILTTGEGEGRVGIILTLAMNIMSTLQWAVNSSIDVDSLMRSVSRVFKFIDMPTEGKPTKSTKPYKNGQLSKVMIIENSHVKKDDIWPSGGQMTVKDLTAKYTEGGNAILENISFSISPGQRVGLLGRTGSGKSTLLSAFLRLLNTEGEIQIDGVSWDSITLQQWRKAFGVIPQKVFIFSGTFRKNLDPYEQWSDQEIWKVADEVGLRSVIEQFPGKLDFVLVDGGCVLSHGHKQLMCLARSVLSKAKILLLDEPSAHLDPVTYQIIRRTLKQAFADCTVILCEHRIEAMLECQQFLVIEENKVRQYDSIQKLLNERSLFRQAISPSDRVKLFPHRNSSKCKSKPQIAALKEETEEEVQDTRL

Turning to `CC1(C)C[C@@H]2CCCNc3cccc(n3)S(=O)(=O)NC(=O)c3ccc(-n4ccc(OCCC5C6(CC6)C56CC6)n4)nc3N1C2` [Compound I, (14S)-8-[3-(2-{Dispiro[2.0.2.1]heptan-7-yl}ethoxy)-1H-pyrazol-1-yl]-12,12-dimethyl-2λ6-thia-3,9,11,18,23-pentaazatetracyclo[17.3.1.111,14.05,10]tetracosa-1(22),5,7,9,19(23),20-hexaene-2,2,4-trione], the results for the F in data set [1], in [4] and in data set [6] were 76.9%, 49.7% and 12.9%, respectively. Further, in data set [2], the concentration for a half-maximal effect (EC50) (usually the concentration giving half of the maximal effect) was below 1 µM. Also, the chloride transport result in [3] and in data set [8] was “modest increase” each time. The synergy analysis result in [3] (setting [10]) was “modestly synergistic”; in data set [3] (setting [11]), “highly synergistic”; in data set [8] (setting [10]), “modestly synergistic”; in [8] (setting [11]) it was “highly synergistic”. Also, the safety and tolerability result in data set [5] (monotherapy, up to a dose of 60 mg qd) is “generally safe and well-tolerated”; in [5] (up to 20 mg qd in triple combination with Compound II and Compound III), “generally safe and well-tolerated”. Also, the “systemic exposure as the dose increased” value in data set [7] and in data set [9] was “increased in a more than doseproportional manner” each time. In addition, in data set [9], the “Dosenormalized exposure, sex comparison” value was “higher in female rats than male rats”.

On to `CC(C)(C)c1cc(C(C)(C)C)c(NC(=O)c2c[nH]c3ccccc3c2=O)cc1O` [Compound III, N-[2,4-bis(1,1-dimethylethyl)-5-hydroxyphenyl]-1,4-dihydro-4-oxoquinoline-3-carboxamide, reference compound], for which the chloride transport result in [3] and in data set [8] was “strongly potentiated chloride transport in the presence of Compound I or in combination with Compound I/Compound II” each time.
